One data set relates to patients. Conditions: in vivo; cited from earlier work.
In data set [1] the test system is renal transplant recipients. Conditions: in vivo, cited from earlier work.
In data set [2] the test system is type‐2 diabetes patients. The conditions noted are these: human, in vivo; cited from earlier work.
Data set [3] relates to type‐2 diabetes patients. Conditions: human, in vivo.
Data set [4] concerns type‐2 diabetes patients. Conditions: human, in vivo. This is another data set of the same source.
In data set [5] the test system is type‐2 diabetes patients. Conditions: human, in vivo. The source holds these as a separate data set.
For data set [6], the system named is type‐2 diabetes patients. On the set-up: species or system human. Conditions: in vivo.

A value given as a limit tells only on which side of the number the result lay.

For `CCC(CC)CC1(C(=O)Nc2ccccc2SC(=O)C(C)C)CCCCC1` [dalcetrapib], the “effect on FMD and CV events” value in the data set on patients was “neutral on both FMD and CV events”.

`CCCCCCCCc1ccc(CCC(N)(CO)CO)cc1` [fingolimod]: in data set [1] (2.5 mg), the “effect on creatinine clearance” value is listed as “creatinine clearance impairment”. For the same compound, the lymphocyte reduction in data set [1] is 70–80%.

For the compound `CCCc1nn(C)c2c(=O)[nH]c(-c3cc(S(=O)(=O)N4CCN(C)CC4)ccc3OCC)nc12` [sildenafil], in the data set on type‐2 diabetes patients [2], the “FMD increase from baseline compared to placebo” value was no less than 3%, the “FMD increases from baseline” value is listed as 5–6% and the “effect on FMD” value was “failed to improve FMD”. In the data set with type‐2 diabetes patients [3], the “Patients with TEAE: Any class” value is 5 (41.7%) n (%), the “Patients with TEAE: Arthropod sting” value was 0 n (%), the “Patients with TEAE: Back pain” value is listed as 1 (8.3%) n (%) and the “Patients with TEAE: Cardiac disorders” value was 1 (8.3%) n (%). Besides, in the data set on type‐2 diabetes patients [3], the “Patients with TEAE: Contusion” value was 0 n (%), the “Patients with TEAE: Cough” value is 0 n (%), the “Patients with TEAE: Diarrhoea” value is listed as 2 (16.7%) n (%) and the “Patients with TEAE: Dyspepsia” value was 1 (8.3%) n (%). Further, in the data set on type‐2 diabetes patients [3], the “Patients with TEAE: Epistaxis” value is 0 n (%), the “Patients with TEAE: Erythema” value was 2 (16.7%) n (%), the “Patients with TEAE: Gastroesophageal reflux disease” value is reported as 1 (8.3%) n (%) and the “Patients with TEAE: Gastrointestinal disorders” value is recorded as 3 (25.0%) n (%). For the same compound, in the data set with type‐2 diabetes patients [3], the “Patients with TEAE: General disorders and administration site conditions” value is on record as 0 n (%); the “Patients with TEAE: Headache” value was 2 (16.7%) n (%); the “Patients with TEAE: Infections and infestations” value was 1 (8.3%) n (%); the “Patients with TEAE: Injury, poisoning and procedural complications” value is reported as 0 n (%). In the data set with type‐2 diabetes patients [3], the “Patients with TEAE: Leading to treatment discontinuation” value was 1 (8.3%) n (%); the “Patients with TEAE: Musculoskeletal and connective tissue disorders” value was 1 (8.3%) n (%); the “Patients with TEAE: Musculoskeletal pain” value was 0 n (%); the “Patients with TEAE: Nasopharyngitis” value was 1 (8.3%) n (%). Also, in the data set with type‐2 diabetes patients [3], the “Patients with TEAE: Nausea” value is given as 0 n (%), the “Patients with TEAE: Neck pain” value is reported as 0 n (%), the “Patients with TEAE: Nervous system disorders” value was 2 (16.7%) n (%) and the “Patients with TEAE: Obstructive airways disorder” value is on record as 0 n (%). In the data set on type‐2 diabetes patients [3], the “Patients with TEAE: Oropharyngeal pain” value is listed as 1 (8.3%) n (%), the “Patients with TEAE: Orthostatic intolerance” value is 0 n (%), the “Patients with TEAE: Otitis externa” value is 0 n (%) and the “Patients with TEAE: Palpitations” value is 0 n (%). For the same compound, in the data set with type‐2 diabetes patients [3], the “Patients with TEAE: Pruritus” value is given as 0 n (%); the “Patients with TEAE: Respiratory, thoracic and mediastinal disorders” value is reported as 1 (8.3%) n (%); the “Patients with TEAE: Severe AE” value is given as 0 n (%); the “Patients with TEAE: Skin abrasion” value is 0 n (%). Moreover, in the data set with type‐2 diabetes patients [3], the “Patients with TEAE: Skin and subcutaneous tissue disorders” value is recorded as 2 (16.7%) n (%); the “Patients with TEAE: Traumatic haematoma” value is reported as 0 n (%); the “Patients with TEAE: Ventricular extrasystoles” value is 1 (8.3%) n (%); the “Patients with TEAE: Vessel puncture site haematoma” value is recorded as 0 n (%). Besides, the “Patients with TEAE: Vomiting” value in the data set with type‐2 diabetes patients [3] was 0 n (%). Besides, the “vasodilatory effect (blood pressure, BAD)” value in the data set with type‐2 diabetes patients [4] was “no blood pressure‐lowering or BAD increase”. Also, in the data set with type‐2 diabetes patients [5], the heart rate change result was “no change” and the “mean heart rate increase” value is 3–6 beats/min. For the same compound, in the data set on type‐2 diabetes patients [6], the “FMD change versus placebo Mean estimate [95% CI]” value is 0.88% and the FMD with treatment entry is listed as “about 5%”.

Take `CCOC(=O)N1c2ccc(C(F)(F)F)cc2[C@@H](N(Cc2cc(C(F)(F)F)cc(C(F)(F)F)c2)C(=O)OC)C[C@H]1CC` [torcetrapib]: the “effect on FMD” value in the data set with patients is “pharmacological decrease in FMD”.

The values above are taken from paper PMC8247405 (British Journal of Clinical Pharmacology, 2020).
